Source: patent US7604990B2, “Methods of regulating differentiation in stem cells” (ES Cell International Pte Ltd., priority 2002, dated 2009)

What was measured:
hES cells [1] = experiment: Direct observation of hES colonies in serum-depleted medium (Example 4); assay type: cell-based, human
Procedure: (A) hES cells grown with feeder, before the depletion in serum. (B) hES cells grown without serum after 8 days (B, C) and 12 days (D, E), in absence (B, D) or presence of S1P (C, E, 10 μM).
For direct observation, hES-3 cells were coated into 12-well plates (3 colonies per well), with or without mouse embryonic feeders (MEFs). The day following the plating, cells were incubated with the different agents in serum free medium containing insulin, transferring and selenium. Media was changed the 2nd day and then every 2 days.

hES cells [2] = experiment: Spontaneous differentiation of hES colonies on MEF in serum-free medium, morphology (Example 1); assay type: cell-based, human; details: 8 days serum-free on MEF; S1P 10 μM, PDGF 20 ng/ml, LPA up to 50 μM
Procedure: (§1) (A) hES cells grown with MEF, before the depletion of serum from the medium. (B, C, D, E) hES cells grown without serum after 8 days, in the absence (B) or in the presence of S1P (10 μM) (C), PDGF (20 ng/ml) (D), S1P (10 μM) plus PDGF (20 ng/ml) (E). (F) hES cells grown without serum, in the presence or in the absence (control) of S1P (10 μM), PDGF (20 ng/ml), S1P (10 μM) plus PDGF (20 ng/ml). In A-E, data are representative of at least 3 independent experiments. In F, data expressed as percentages of alkaline phosphatase activity in absence of serum for eight days (% of control), are the means±SEM of at least 2 independent experiments, each run in triplicate.
hES-3 cells were cultured as previously described^1. The serum-free culture medium consisted of DMEM (without sodium pyruvate, glucose 4500 mg/l, Invitrogen, Mount Waverley, VIC, Australia) supplemented with insulin/transferrin/selenium 1%, β-mercaptoethanol 0.1 mM, NEAA 1%, glutamine 2 mM, Hepes 25 mM, penicillin 50 U/ml and streptomycin […] (all from Invitrogen). Medium was changed every 2 days and cells were passaged every week. S1P and dihydro-S1P were obtained from Biomol (Plymouth Meeting, Pa., USA) and were dissolved in methanol. LPA was obtained from Sigma (Castle Hill, NSW, Australia) and was dissolved in ethanol. Extemporaneous dilutions of all lipids were made in water containing 0.1% fatty acid-free bovine serum albumin (BSA) (Sigma). Human PDGF-AB, PDGF-AA, PDGF-BB were from PreproTech Inc. (Rocky Hill, N.J., USA).

[3] = system: ERKs (Erk1 and Erk2) in hES cells; experiment: ERK phosphorylation Western blot in hES cells (Example 5); assay type: cell-based, human
Procedure: Western blots experiments were performed using protein lysate from hES cells. (A) Cells were pre-treated or not with U0126 (30 μM, 1 hr) and incubated for 5 min in the absence (C, control) or presence of S1P (10 μM). (B) Cells were incubated for different time periods in the absence or presence of S1P (10 μM). (C) Cells were incubated for 5 min with various concentrations of S1P. The phosphorylation of Erk1 and Erk2 (P-Erk1 and P-Erk2) was assessed by immunoblotting with a polyclonal anti-active MAP kinase as described in Materials and Methods. After a stripping procedure, the same blots reprobed with a monoclonal anti-MAP kinase, allowed the detection of Erk1 and Erk2.
For immunoblot analysis, cells were transferred into 24 well plates (8 colonies per well) without MEFs, and 24 hr later, were grown in the absence of serum for 18 hrs.
In some experiments, cells were pre-treated for 1 hr with U0126 (30 μM) or for 18 hrs with PTX (100 μg/ml).
hES3 cells were lysed following removal of the supernatants by addition of a reducing loading buffer (2% SDS, 62.5 mM Tris pH 6.8, 0.1 M DTT, 0.01% bromophenol blue) containing 1 mM sodium orthovanadate. Samples were boiled for 10 min and centrifuged at 13000 g for 15 min, and protein lysates (approx. 80 μg) were separated by SDS-polyacrylamide gel electrophoresis (10% polyacrylamide, w/v). Proteins were transferred to nitrocellulose (Hybond-ECL, Amersham) and immunoblotting was carried out with rabbit polyclonal anti-active mitogen-activated protein (MAPK) antibodies raised against a dually phosphorylated MAPK peptide (Promega, Madison, Wis., USA). Peroxidase-coupled secondary antibody (Dako) was detected by exposure of autoradiographic films in the presence of a chemiluminescent detection reagent (ECL, Amersham). Stripping of antibodies was achieved by incubating the membrane during 30 min at 50° C. in a buffer containing 100 mM mercaptoethanol, 2% SDS, 62.5 mM Tris-HCl pH 6.7. The membrane was then reprobing with rabbit polyclonal anti-ERK1/2 antibodies (Promega), and then with peroxidase-coupled secondary antibodies (Dako).

hES cells [4] = experiment: Double immunostaining GCTM-2/PCNA of dissociated hES cells (Example 4); assay type: cell-based, human; details: 4 days without serum; S1P 10 μM
Procedure: Double staining experiments were performed using antibodies for PCNA and GCTM-2.
For immunostaining, hES-3 cells were coated on chamber slides after mechanical dissociation, in order to obtain a monolayer culture. The day following the plating, cells were incubated with the different agents in a media depleted in serum. Media was changed the 2nd day and the cells were fixed 4 days after the first treatment.
Cells were washed in PBS, fixed with MeOH, and immunostaining was performed, using the specific stem cell marker antibody GCTM-2, and the specific cell proliferation marker PCNA. Cells were then washed and the nucleuses were stained with Hoechst-33342 (1 μg/ml). Slides were mounted and then observed by fluorescent microscopy. Cells were then counted in order to determine the ratio of proliferating stem cells within the overall population.

hES cells [5] = experiment: GCTM-2 quantification by alkaline phosphatase activity, hES cells on MEF, serum-free (Example 1); assay type: cell-based, human; details: 8 days serum-free on MEF; S1P 10 μM, PDGF 20 ng/ml; n=7
Procedure: as §1
hES-3 cells plated with MEF, were fixed in ethanol and immunostained with GCTM-2 and then with an alkaline phosphatase-coupled secondary antibody (Dako). The activity of alkaline phosphatase was detected by adding a solution of 4-nitrophenyl phosphate (Roche, Mannheim, Germany), followed by reading the optical density (OD) at 405 nm. In order to validate the technique as a relevant indicator of the proportion of GCTM-2 positive cells, standard curves were done with the teratocarcinoma cell line GCT27C4, known to express GCTM-2.

SPK in MEF = experiment: Sphingosine kinase activity in MEF after PDGF; assay type: cell-based, mouse; details: PDGF 20 ng/ml

Molecule: CCCCCCCCCCCCC/C=C/[C@@H](O)[C@@H](N)COP(=O)(O)O [S1P, Sphingosine-1-phosphate]
- growth/differentiation of hES colonies on MEFs (hES cells [1]; S1P 10 μM 8 days, LPA up to 50 μM 12 days): more compact and less differentiated
- effect on cell differentiation, hES cells grown without MEFs (hES cells [1]; without MEFs, n=3): inhibitory effect
- colony growth/morphology (spontaneous differentiation) (hES cells [2]): flatter and less differentiated
- concentration dependence of ERKs stimulation ([3]; 5 min, various concentrations of S1P): concentration dependant manner
- duration of ERKs stimulation ([3]; S1P 10 μM): at least 60 min
- phosphorylation of ERKs ([3]; hES cells, 5 min, S1P 10 μM): stimulated the phosphorylation of ERKs
- proliferating rate of hES cells (PCNA) versus control (hES cells [4]): no marked difference

Molecule: PDGF
- colony growth/morphology (spontaneous differentiation) (hES cells [2]): flatter and less differentiated
- more GCTM2+ than the control cells (alkaline phosphatase activity) (hES cells [5]): 16.6±7.0%
- activation of SPK in MEF (SPK in MEF): did not induce a significant statistical activation of SPK
